Test results as given in the kinase profiling compilation of Christmann-Franck et al. (2016).
One block for each compound: values may come before it.

How the values were obtained:
Assay in all cases: KINOMEscan competition binding
Details in all cases: compound 10.0 µM
[1] = tested on: EGFR (human), P00533 [G719S]
[2] = biological target: STK38L (human) (UniProt Q9Y2H1)
[3] = biological target: TYK2 JH2 pseudokinase (human) (UniProt P29597)
[4] = tested on: FLT3 (human), P36888 [ITD]
[5] = biological target: CAMK1D (human) (UniProt Q8IU85)
[6] = biological target: CDK17 (human) (UniProt Q00537)
[7] = tested on: EGFR (human), P00533 [L858R]
[8] = biological target: LYN (human) (UniProt P07948)
[9] = biological target: CDK15 (human) (UniProt Q96Q40)
[10] = tested on: FLT3 (human), P36888 [D835Y]
[11] = biological target: RET (human) (UniProt P07949)
[12] = biological target: TTK (human) (UniProt P33981)
[13] = tested on: FLT3 (human), P36888 [N841I]
[14] = biological target: CDK8 (human) (UniProt P49336)
[15] = biological target: STK10 (human) (UniProt O94804)
[16] = biological target: PRKACB (human) (UniProt P22694)
[17] = biological target: MAP4K2 (human) (UniProt Q12851)
[18] = biological target: TAOK3 (human) (UniProt Q9H2K8)
[19] = biological target: RPS6KA5 KD2 (human) (UniProt O75582)
[20] = biological target: EPHB1 (human) (UniProt P54762)
[21] = biological target: MAP4K5 (human) (UniProt Q9Y4K4)
[22] = biological target: PRKD3 (human) (UniProt O94806)
[23] = biological target: BMPR1A (human) (UniProt P36894)
[24] = biological target: PIK3CD (human) (UniProt O00329)
[25] = biological target: PIP5K1A (human) (UniProt Q99755)
[26] = biological target: TYRO3 (human) (UniProt Q06418)
[27] = biological target: ACVRL1 (human) (UniProt P37023)
[28] = biological target: STK25 (human) (UniProt O00506)
[29] = biological target: PHKG2 (human) (UniProt P15735)
[30] = biological target: WEE1 (human) (UniProt P30291)
[31] = biological target: CDK3 (human) (UniProt Q00526)
[32] = biological target: DMPK (human) (UniProt Q09013)
[33] = biological target: GSK3A (human) (UniProt P49840)
[34] = biological target: PRKAA2 (human) (UniProt P54646)
[35] = biological target: CSNK1D (human) (UniProt P48730)
[36] = biological target: CSNK1G3 (human) (UniProt Q9Y6M4)
[37] = biological target: CHEK1 (human) (UniProt O14757)
[38] = biological target: MKNK1 (human) (UniProt Q9BUB5)
[39] = biological target: CAMK2A (human) (UniProt Q9UQM7)
[40] = biological target: MAPK4 (human) (UniProt P31152)
[41] = biological target: MST4 (human) (UniProt Q9P289)
[42] = biological target: STK33 (human) (UniProt Q9BYT3)

Chain of BMPR1A (human) (P36894 whole entry, looked up): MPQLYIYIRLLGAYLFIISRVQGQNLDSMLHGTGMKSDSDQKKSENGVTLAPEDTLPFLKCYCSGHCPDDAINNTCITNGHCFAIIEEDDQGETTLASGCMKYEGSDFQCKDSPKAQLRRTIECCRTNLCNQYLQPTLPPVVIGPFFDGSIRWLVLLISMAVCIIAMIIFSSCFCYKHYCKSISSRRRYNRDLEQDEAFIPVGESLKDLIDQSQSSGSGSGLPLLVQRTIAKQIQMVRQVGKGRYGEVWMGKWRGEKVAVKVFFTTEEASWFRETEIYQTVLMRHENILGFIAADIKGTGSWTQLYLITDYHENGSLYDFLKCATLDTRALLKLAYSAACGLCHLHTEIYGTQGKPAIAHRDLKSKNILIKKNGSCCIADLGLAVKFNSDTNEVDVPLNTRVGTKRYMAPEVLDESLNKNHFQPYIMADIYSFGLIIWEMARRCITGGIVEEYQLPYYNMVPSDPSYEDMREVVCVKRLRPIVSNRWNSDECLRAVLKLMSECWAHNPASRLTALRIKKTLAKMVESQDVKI
Chain of CSNK1D (human) (P48730 whole entry, looked up): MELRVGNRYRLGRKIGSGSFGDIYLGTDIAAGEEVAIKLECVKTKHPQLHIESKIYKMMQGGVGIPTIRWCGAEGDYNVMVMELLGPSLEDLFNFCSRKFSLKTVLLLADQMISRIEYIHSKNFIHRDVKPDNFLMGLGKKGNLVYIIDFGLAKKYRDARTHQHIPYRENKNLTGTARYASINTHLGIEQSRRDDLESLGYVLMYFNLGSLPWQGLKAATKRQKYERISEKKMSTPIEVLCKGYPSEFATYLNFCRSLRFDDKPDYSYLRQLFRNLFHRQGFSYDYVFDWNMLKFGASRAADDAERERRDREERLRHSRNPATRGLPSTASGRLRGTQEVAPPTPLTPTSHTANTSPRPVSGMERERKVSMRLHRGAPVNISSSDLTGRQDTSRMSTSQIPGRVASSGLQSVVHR
Chain of GSK3A (human) (P49840 whole entry, looked up): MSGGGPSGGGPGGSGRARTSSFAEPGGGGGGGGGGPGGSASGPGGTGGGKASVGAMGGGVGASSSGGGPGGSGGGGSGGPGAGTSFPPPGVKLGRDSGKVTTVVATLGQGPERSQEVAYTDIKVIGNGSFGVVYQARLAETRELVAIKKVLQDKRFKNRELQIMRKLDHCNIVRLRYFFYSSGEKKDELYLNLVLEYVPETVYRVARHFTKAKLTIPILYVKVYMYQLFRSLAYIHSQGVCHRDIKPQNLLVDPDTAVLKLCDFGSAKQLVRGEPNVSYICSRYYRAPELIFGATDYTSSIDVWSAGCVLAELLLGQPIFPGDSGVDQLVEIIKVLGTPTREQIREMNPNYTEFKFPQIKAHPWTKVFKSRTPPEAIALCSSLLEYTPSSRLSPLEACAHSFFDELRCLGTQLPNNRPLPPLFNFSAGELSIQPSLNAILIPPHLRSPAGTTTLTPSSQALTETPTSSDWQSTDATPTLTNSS
Chain of TYRO3 (human) (Q06418 whole entry, looked up): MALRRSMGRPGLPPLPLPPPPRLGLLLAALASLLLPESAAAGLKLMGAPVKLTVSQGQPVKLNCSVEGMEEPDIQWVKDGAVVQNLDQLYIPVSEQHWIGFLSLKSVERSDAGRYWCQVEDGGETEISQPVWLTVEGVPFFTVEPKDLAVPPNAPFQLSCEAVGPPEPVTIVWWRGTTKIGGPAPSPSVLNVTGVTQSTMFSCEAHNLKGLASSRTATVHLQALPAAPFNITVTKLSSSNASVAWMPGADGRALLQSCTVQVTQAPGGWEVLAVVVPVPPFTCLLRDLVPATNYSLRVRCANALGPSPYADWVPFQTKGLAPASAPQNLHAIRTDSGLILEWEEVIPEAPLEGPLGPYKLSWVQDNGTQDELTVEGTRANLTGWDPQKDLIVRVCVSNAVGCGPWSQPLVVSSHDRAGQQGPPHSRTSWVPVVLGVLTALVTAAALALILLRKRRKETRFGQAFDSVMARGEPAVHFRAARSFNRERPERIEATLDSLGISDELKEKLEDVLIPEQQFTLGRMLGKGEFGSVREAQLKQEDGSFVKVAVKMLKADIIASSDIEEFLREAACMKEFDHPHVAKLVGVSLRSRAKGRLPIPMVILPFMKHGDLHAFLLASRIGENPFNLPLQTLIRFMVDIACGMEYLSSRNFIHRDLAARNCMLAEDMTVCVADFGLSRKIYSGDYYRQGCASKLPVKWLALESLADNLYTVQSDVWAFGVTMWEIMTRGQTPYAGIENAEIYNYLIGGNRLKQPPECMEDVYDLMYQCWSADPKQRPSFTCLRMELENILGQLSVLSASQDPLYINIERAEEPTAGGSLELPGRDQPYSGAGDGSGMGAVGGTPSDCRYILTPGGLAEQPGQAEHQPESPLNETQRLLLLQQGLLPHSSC
Chain of PRKAA2 (human) (P54646 whole entry, looked up): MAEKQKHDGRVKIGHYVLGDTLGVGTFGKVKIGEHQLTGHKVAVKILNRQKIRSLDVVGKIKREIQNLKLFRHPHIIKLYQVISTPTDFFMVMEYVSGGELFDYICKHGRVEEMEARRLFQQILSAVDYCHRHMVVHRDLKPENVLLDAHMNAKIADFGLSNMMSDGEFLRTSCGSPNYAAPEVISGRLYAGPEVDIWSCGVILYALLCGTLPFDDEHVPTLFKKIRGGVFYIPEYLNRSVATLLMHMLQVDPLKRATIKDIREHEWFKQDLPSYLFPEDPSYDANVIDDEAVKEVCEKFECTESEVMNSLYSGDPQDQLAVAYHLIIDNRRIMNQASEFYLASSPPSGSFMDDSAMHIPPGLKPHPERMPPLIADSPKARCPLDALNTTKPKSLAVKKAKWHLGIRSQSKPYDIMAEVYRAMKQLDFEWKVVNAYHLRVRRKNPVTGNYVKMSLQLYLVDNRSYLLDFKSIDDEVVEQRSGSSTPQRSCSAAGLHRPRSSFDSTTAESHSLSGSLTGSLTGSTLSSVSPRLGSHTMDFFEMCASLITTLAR
Chain of WEE1 (human) (P30291 whole entry, looked up): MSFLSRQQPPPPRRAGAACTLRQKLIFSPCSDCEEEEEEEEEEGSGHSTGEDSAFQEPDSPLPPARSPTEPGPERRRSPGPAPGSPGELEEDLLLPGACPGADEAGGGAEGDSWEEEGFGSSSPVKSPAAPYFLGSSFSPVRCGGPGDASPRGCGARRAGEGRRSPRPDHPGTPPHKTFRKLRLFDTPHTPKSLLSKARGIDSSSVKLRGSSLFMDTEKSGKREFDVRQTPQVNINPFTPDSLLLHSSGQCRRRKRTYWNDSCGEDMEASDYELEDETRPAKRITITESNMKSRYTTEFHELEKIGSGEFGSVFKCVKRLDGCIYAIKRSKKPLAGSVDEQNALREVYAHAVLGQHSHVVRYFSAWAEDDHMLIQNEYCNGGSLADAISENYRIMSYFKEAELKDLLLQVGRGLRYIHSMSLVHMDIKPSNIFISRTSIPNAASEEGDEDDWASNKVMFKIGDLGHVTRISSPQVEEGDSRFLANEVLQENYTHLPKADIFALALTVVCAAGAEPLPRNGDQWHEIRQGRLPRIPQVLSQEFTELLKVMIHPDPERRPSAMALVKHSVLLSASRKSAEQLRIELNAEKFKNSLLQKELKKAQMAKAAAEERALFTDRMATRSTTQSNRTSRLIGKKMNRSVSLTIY
Chain of CDK17 (human) (Q00537 whole entry, looked up): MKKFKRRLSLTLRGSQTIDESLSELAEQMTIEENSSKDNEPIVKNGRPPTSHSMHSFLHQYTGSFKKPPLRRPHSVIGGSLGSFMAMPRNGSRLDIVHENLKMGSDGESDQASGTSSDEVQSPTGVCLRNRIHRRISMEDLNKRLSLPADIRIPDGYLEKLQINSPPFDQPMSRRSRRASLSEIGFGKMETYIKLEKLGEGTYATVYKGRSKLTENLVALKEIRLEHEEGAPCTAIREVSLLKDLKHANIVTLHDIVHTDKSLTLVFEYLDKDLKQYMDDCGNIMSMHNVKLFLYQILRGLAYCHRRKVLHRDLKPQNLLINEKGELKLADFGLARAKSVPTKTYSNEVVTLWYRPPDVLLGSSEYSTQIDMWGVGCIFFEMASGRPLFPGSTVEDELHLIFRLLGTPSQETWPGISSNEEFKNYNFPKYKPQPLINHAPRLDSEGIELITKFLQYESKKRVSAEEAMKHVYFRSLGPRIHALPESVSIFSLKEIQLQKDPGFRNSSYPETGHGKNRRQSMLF
Chain of DMPK (human) (Q09013 whole entry, looked up): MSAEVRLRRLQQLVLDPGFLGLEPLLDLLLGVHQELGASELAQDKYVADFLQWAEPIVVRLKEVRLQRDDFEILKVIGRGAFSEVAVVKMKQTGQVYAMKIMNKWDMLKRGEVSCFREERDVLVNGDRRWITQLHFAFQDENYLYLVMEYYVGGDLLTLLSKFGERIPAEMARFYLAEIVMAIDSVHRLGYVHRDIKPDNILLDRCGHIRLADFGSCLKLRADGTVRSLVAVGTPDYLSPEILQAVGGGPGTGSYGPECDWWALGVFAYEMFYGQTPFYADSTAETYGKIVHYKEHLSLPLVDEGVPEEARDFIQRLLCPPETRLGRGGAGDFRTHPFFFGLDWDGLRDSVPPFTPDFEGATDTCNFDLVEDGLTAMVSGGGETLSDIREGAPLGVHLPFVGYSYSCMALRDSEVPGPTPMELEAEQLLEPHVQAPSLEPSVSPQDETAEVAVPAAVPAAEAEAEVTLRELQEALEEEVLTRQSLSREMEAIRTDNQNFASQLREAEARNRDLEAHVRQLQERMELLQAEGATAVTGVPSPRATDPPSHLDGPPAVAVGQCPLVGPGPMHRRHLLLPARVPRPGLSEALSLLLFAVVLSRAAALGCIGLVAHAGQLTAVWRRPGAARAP
Chain of CDK3 (human) (Q00526 whole entry, looked up): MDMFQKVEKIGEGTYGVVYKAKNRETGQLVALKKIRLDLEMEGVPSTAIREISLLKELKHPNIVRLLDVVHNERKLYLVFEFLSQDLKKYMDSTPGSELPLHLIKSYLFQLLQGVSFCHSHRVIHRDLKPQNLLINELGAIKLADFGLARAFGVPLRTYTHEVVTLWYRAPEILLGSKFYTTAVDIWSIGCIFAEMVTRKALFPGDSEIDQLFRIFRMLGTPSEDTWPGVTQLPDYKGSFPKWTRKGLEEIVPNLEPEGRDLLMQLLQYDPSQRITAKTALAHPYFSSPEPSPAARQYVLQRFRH

kinase still bound, per cent of control [1]: 14%
kinase still bound, per cent of control [2]: 6.8%
kinase still bound, per cent of control [3]: 0%
kinase still bound, per cent of control [4]: 0.7%
kinase still bound, per cent of control [5]: 6.2%
kinase still bound, per cent of control [6]: 0.1%
kinase still bound, per cent of control [7]: 14%
kinase still bound, per cent of control [8]: 0.75%
kinase still bound, per cent of control [9]: 6%
kinase still bound, per cent of control [10]: 14%
kinase still bound, per cent of control [11]: 0%
kinase still bound, per cent of control [12]: 24%
kinase still bound, per cent of control [13]: 0%
kinase still bound, per cent of control [14]: 3.9%
kinase still bound, per cent of control [15]: 0%
kinase still bound, per cent of control [16]: 14%
kinase still bound, per cent of control [17]: 0.3%
Structure (SMILES): CCN1CCN(Cc2ccc(NC(=O)c3ccc(C)c(Oc4ccnc5[nH]ccc45)c3)cc2C(F)(F)F)CC1

Structure (SMILES): CCOc1cc(N2CCC(N3CCCCC3)CC2)ccc1Nc1nc(Nc2ccccc2S(=O)(=O)C(C)C)c2cn[nH]c2n1
kinase still bound, per cent of control [18]: 36%
kinase still bound, per cent of control [19]: 100%
kinase still bound, per cent of control [1]: 100%
kinase still bound, per cent of control [2]: 100%
kinase still bound, per cent of control [20]: 100%
kinase still bound, per cent of control [3]: 63%
kinase still bound, per cent of control [21]: 58%
kinase still bound, per cent of control [4]: 100%
kinase still bound, per cent of control [22]: 36%
kinase still bound, per cent of control [23]: 100%
kinase still bound, per cent of control [24]: 100%
kinase still bound, per cent of control [5]: 1%
kinase still bound, per cent of control [25]: 39%
kinase still bound, per cent of control [26]: 100%
kinase still bound, per cent of control [27]: 100%
kinase still bound, per cent of control [6]: 100%
kinase still bound, per cent of control [28]: 95%
kinase still bound, per cent of control [29]: 21%
kinase still bound, per cent of control [7]: 6.6%
kinase still bound, per cent of control [8]: 100%
kinase still bound, per cent of control [30]: 100%
kinase still bound, per cent of control [31]: 85%
kinase still bound, per cent of control [32]: 70%
kinase still bound, per cent of control [33]: 100%
kinase still bound, per cent of control [34]: 100%
kinase still bound, per cent of control [35]: 92%
kinase still bound, per cent of control [9]: 100%
kinase still bound, per cent of control [36]: 50%
kinase still bound, per cent of control [37]: 100%
kinase still bound, per cent of control [10]: 59%
kinase still bound, per cent of control [11]: 100%
kinase still bound, per cent of control [38]: 53%
kinase still bound, per cent of control [39]: 34%
kinase still bound, per cent of control [12]: 6.5%
kinase still bound, per cent of control [13]: 100%
kinase still bound, per cent of control [40]: 100%
kinase still bound, per cent of control [14]: 100%
kinase still bound, per cent of control [41]: 100%
kinase still bound, per cent of control [15]: 100%
kinase still bound, per cent of control [16]: 100%
kinase still bound, per cent of control [42]: 15%
kinase still bound, per cent of control [17]: 97%

kinase still bound, per cent of control [18]: 0.1%
kinase still bound, per cent of control [19]: 40%
kinase still bound, per cent of control [1]: 9.6%
kinase still bound, per cent of control [2]: 7.3%
kinase still bound, per cent of control [20]: 0.1%
kinase still bound, per cent of control [3]: 11%
kinase still bound, per cent of control [21]: 0.3%
kinase still bound, per cent of control [22]: 0%
kinase still bound, per cent of control [23]: 0%
kinase still bound, per cent of control [24]: 40%
kinase still bound, per cent of control [25]: 1.3%
kinase still bound, per cent of control [26]: 24%
kinase still bound, per cent of control [27]: 1.7%
kinase still bound, per cent of control [6]: 9.9%
kinase still bound, per cent of control [28]: 40%
kinase still bound, per cent of control [29]: 0%
kinase still bound, per cent of control [7]: 0.1%
kinase still bound, per cent of control [8]: 5%
kinase still bound, per cent of control [30]: 17%
kinase still bound, per cent of control [31]: 40%
kinase still bound, per cent of control [32]: 1.8%
kinase still bound, per cent of control [33]: 40%
kinase still bound, per cent of control [34]: 0.15%
kinase still bound, per cent of control [35]: 40%
kinase still bound, per cent of control [36]: 40%
kinase still bound, per cent of control [37]: 0%
kinase still bound, per cent of control [38]: 40%
kinase still bound, per cent of control [39]: 1.2%
kinase still bound, per cent of control [12]: 0%
kinase still bound, per cent of control [40]: 40%
kinase still bound, per cent of control [14]: 40%
kinase still bound, per cent of control [41]: 27%
kinase still bound, per cent of control [15]: 0%
kinase still bound, per cent of control [16]: 9.9%
kinase still bound, per cent of control [42]: 0.1%
kinase still bound, per cent of control [17]: 9.4%
Structure (SMILES): COc1cc(N2CCC(N3CCN(C)CC3)CC2)ccc1Nc1ncc(Cl)c(Nc2ccccc2S(=O)(=O)C(C)C)n1

Structure (SMILES): CCN1CCN(Cc2ccc(NC(=O)c3ccc(C)c(/C=C/c4cnc(Nc5cc(N6CCNCC6)nc(C)n5)cn4)c3)cc2C(F)(F)F)CC1
kinase still bound, per cent of control [18]: 0%
kinase still bound, per cent of control [19]: 73%
kinase still bound, per cent of control [1]: 5.4%
kinase still bound, per cent of control [2]: 84%
kinase still bound, per cent of control [20]: 16%
kinase still bound, per cent of control [3]: 100%
kinase still bound, per cent of control [21]: 0.55%
kinase still bound, per cent of control [4]: 5.6%
kinase still bound, per cent of control [22]: 71%
kinase still bound, per cent of control [23]: 100%
kinase still bound, per cent of control [24]: 50%
kinase still bound, per cent of control [5]: 100%
kinase still bound, per cent of control [25]: 86%
kinase still bound, per cent of control [26]: 37%
kinase still bound, per cent of control [27]: 79%
kinase still bound, per cent of control [6]: 60%
kinase still bound, per cent of control [28]: 35%
kinase still bound, per cent of control [29]: 100%
kinase still bound, per cent of control [7]: 3.4%
kinase still bound, per cent of control [8]: 1%
kinase still bound, per cent of control [30]: 100%
kinase still bound, per cent of control [31]: 100%
kinase still bound, per cent of control [32]: 100%
kinase still bound, per cent of control [33]: 81%
kinase still bound, per cent of control [34]: 14%
kinase still bound, per cent of control [35]: 95%
kinase still bound, per cent of control [9]: 53%
kinase still bound, per cent of control [36]: 100%
kinase still bound, per cent of control [37]: 82%
kinase still bound, per cent of control [10]: 3.2%
kinase still bound, per cent of control [11]: 0.15%
kinase still bound, per cent of control [38]: 89%
kinase still bound, per cent of control [39]: 100%
kinase still bound, per cent of control [12]: 85%
kinase still bound, per cent of control [13]: 0%
kinase still bound, per cent of control [40]: 100%
kinase still bound, per cent of control [14]: 3.6%
kinase still bound, per cent of control [41]: 4.6%
kinase still bound, per cent of control [15]: 0%
kinase still bound, per cent of control [16]: 90%
kinase still bound, per cent of control [42]: 90%
kinase still bound, per cent of control [17]: 0.1%
